Blank lines part the entries; values can stand above or below the compound they belong to.
Tests used:
[1] = Dissociation constant, pKa was determined; type: physicochemical
[2] = target: T1, Gastrin/cholecystokinin type B receptor (Mus musculus, UniProt P56481); test: The concentration (nM) producing half-maximal inhibition of specific binding of [1251] Bolton Hunter CCK-8 to CCK receptors in the mouse cerebral cortex (CCK-B);value ranges from 62 to 98; type: tissue-based
T1 sequence (P56481 whole entry): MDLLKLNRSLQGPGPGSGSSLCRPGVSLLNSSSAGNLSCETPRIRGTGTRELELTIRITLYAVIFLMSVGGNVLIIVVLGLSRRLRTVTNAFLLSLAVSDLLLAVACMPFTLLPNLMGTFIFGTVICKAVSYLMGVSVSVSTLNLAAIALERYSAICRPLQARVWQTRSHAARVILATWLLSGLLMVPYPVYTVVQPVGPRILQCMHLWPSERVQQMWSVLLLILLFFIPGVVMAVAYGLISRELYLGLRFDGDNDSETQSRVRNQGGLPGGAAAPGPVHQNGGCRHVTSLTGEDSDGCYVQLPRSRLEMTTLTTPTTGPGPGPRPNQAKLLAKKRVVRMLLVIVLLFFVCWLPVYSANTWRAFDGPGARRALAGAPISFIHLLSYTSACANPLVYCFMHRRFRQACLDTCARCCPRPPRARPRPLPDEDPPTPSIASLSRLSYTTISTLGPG

[3] = target: T2, Cholecystokinin receptor type A (Rattus norvegicus, UniProt P30551); test: The concentration (nM) producing half-maximal inhibition of specific binding of [1251] Bolton Hunter CCK-8 to CCK receptors in the rat pancreas (CCK-A);value ranges from 620 to 770
T2 sequence (P30551 whole entry): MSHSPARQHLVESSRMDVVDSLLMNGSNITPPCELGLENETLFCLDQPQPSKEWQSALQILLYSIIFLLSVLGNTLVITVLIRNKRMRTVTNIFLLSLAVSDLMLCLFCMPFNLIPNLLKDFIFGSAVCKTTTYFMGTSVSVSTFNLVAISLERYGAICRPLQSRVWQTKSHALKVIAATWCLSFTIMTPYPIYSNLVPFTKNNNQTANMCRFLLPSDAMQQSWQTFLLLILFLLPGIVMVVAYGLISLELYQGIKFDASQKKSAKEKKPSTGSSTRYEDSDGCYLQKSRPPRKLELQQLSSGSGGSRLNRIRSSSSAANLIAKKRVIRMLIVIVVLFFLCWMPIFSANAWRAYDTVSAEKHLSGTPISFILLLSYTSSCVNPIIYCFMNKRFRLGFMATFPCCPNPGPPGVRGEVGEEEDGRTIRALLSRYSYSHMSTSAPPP

[4] = target: T1, Gastrin/cholecystokinin type B receptor; test: The concentration (nM) producing half-maximal inhibition of specific binding of [1251] Bolton Hunter CCK-8 to CCK receptors in the mouse cerebral cortex (CCK-B);value ranges from 3.0 to 8.1; type: tissue-based
[5] = target: T2, Cholecystokinin receptor type A; test: The concentration (nM) producing half-maximal inhibition of specific binding of [1251] Bolton Hunter CCK-8 to CCK receptors in the rat pancreas (CCK-A); value ranges from 1000 to 1100
[6] = target: T1, Gastrin/cholecystokinin type B receptor; test: The concentration (nM) producing half-maximal inhibition of specific binding of [1251] Bolton Hunter CCK-8 to CCK receptors in the mouse cerebral cortex (CCK-B);value ranges from 63 to 170; type: tissue-based
[7] = target: T2, Cholecystokinin receptor type A; test: The concentration (nM) producing half-maximal inhibition of specific binding of [1251] Bolton Hunter CCK-8 to CCK receptors in the rat pancreas (CCK-A); value ranges from 680 to 970
[8] = Dissociation constant, pKa was determined; experiment 1; type: physicochemical
[9] = Dissociation constant, pKa was determined; experiment 2; type: physicochemical
[10] = target: T1, Gastrin/cholecystokinin type B receptor; test: The concentration (nM) producing half-maximal inhibition of specific binding of [1251] Bolton Hunter CCK-8 to CCK receptors in the mouse cerebral cortex (CCK-B);value ranges from 22 to 24; type: tissue-based
[11] = target: T2, Cholecystokinin receptor type A; test: The concentration (nM) producing half-maximal inhibition of specific binding of [1251] Bolton Hunter CCK-8 to CCK receptors in the rat pancreas (CCK-A);value ranges from 2300 to 3500
[12] = target: T1, Gastrin/cholecystokinin type B receptor; test: The concentration (nM) producing half-maximal inhibition of specific binding of [1251] Bolton Hunter CCK-8 to CCK receptors in the mouse cerebral cortex (CCK-B);value ranges from 8.6 to 32; type: tissue-based
[13] = target: T2, Cholecystokinin receptor type A; test: The concentration (nM) producing half-maximal inhibition of specific binding of [1251] Bolton Hunter CCK-8 to CCK receptors in the rat pancreas (CCK-A);value ranges from 900 to 1900
[14] = target: T1, Gastrin/cholecystokinin type B receptor; test: The concentration (nM) producing half-maximal inhibition of specific binding of [1251] Bolton Hunter CCK-8 to CCK receptors in the mouse cerebral cortex (CCK-B);value ranges from 5.3 to 7.7; type: tissue-based
[15] = target: T2, Cholecystokinin receptor type A; test: The concentration (nM) producing half-maximal inhibition of specific binding of [1251] Bolton Hunter CCK-8 to CCK receptors in the rat pancreas (CCK-A);value ranges from 1100 to 1500

- pKa [1]: 5.6
Compound: C[C@@](Cc1c[nH]c2ccccc12)(NC(=O)OC1C2CC3CC(C2)CC1C3)C(=O)NC[C@H](NC(=O)CCC(=O)O)c1ccccc1 (stereo not given in full)

- pKa [1]: 7.9
- IC50 [2]: 77 nM
- IC50 [3]: 680 nM
Compound: CC(Cc1c[nH]c2ccccc12)(NC(=O)OC1C2CC3CC(C2)CC1C3)C(=O)NC[C@H](NC(=O)CCNS(=O)(=O)C(F)(F)F)c1ccccc1 (single isomer, unassigned)

- pKa [1]: 5.4
- IC50 [4]: 5.6 nM
- IC50 [5]: 1070 nM
Compound: CC(Cc1c[nH]c2ccccc12)(NC(=O)OC1C2CC3CC(C2)CC1C3)C(=O)NC[C@H](NC(=O)CCc1nnn[nH]1)c1ccccc1 (single isomer, unassigned)

- pKa [1]: > 9.5
- IC50 [6]: 89 nM
- IC50 [7]: 800 nM
Compound: CC(Cc1c[nH]c2ccccc12)(NC(=O)OC1C2CC3CC(C2)CC1C3)C(=O)NC[C@H](NC(=O)CCNC(=O)C(F)(F)F)c1ccccc1 (single isomer, unassigned)

- pKa [8]: 3.4
- pKa [9]: 7.8
- IC50 [10]: 23 nM
- IC50 [11]: 2700 nM
Compound: CC(Cc1c[nH]c2ccccc12)(NC(=O)OC1C2CC3CC(C2)CC1C3)C(=O)NC[C@H](NC(=O)CCP(=O)(O)O)c1ccccc1 (single isomer, unassigned)

- pKa [1]: > 9.5
- IC50 [12]: 14 nM
- IC50 [13]: 1800 nM
Compound: CC(Cc1c[nH]c2ccccc12)(NC(=O)OC1C2CC3CC(C2)CC1C3)C(=O)NC[C@H](NC(=O)CCC(=O)NO)c1ccccc1 (single isomer, unassigned)

- pKa [1]: 5.2
- IC50 [14]: 6.3 nM
- IC50 [15]: 1200 nM
Compound: CC(Cc1c[nH]c2ccccc12)(NC(=O)OC1C2CC3CC(C2)CC1C3)C(=O)NC[C@H](NC(=O)CCC(=O)Nc1nn[nH]n1)c1ccccc1 (single isomer, unassigned)

Source: ChEMBL document CHEMBL1152007, “The synthesis and CCK receptor affinities of selected carboyxlic acid mimics of CI-988 - a potent and selective CCK-B antagonist” (Bioorg Med Chem Lett, 1992)
